Data from patent publication US20250186405A1, “Compound For Use In Treating Narcolepsy” (Alkermes, Inc., priority 2023, published 2025).
“And” between values parts separate entries of the source, which are not always exact repeats. Equal entries are not always repeated.

Test system: subjects with narcolepsy type-1 (NT1)
Assay: Part 4 POC NT1: treatment-emergent adverse events, single doses, crossover
Format: in vivo, human
Procedure: Subjects were randomized to 1 of 4 sequences.
Each subject received three doses of Compound A, including 1, 3, and 8 mg, and a single dose of placebo. […] All subjects underwent the washout period and completed all 4-way randomized crossover periods.
With one exception, each subject received three doses of Compound A, including 1, 3, and 8 mg, and a single dose of placebo. One patient withdrew from the study after the first dose due to venous access complications. […] With the exception of one patient as noted above, all subjects underwent the washout period and completed all 4-way randomized crossover periods.

CS(=O)(=O)N[C@H]1CCCN2C(=O)COc3ccccc3C3CCC(CC3)OCC12 (stereo partly drawn) [Compound A, N-[(4S,4aR,7α,10α)-1,2,3,4,4a,5,7,8,9,10,16,17-dodecahydro-17-oxo-7,10-ethanopyrido[1,2-d][1,7,4]benzodioxaazacyclotridecin-4-yl]methanesulfonamide]
TEAE by Highest Relationship: Related (3 mg (N = 9)): 3 (33.3) n (%)
TEAE by Highest Severity: Mild (3 mg (N = 9)): 5 (55.6) n (%)
TEAE by Highest Severity: Moderate (3 mg (N = 9)): 0 n (%)
TEAE by Highest Severity: Severe (3 mg (N = 9)): 0 n (%)
AE Leading to Study Drug Discontinuation (8 mg (N = 4)): 0 n (%)
Any SAEs (8 mg (N = 4)): 0 n (%)
Any TEAE (8 mg (N = 4)): 4 (100) n (%) and 4 n (%)
Death (8 mg (N = 4)): 0 n (%)
TEAE Anaemia (8 mg (N = 4)): 0 n (%)
TEAE Application site dermatitis (8 mg (N = 4)): 1 n (%)
TEAE Blood pressure increased (8 mg (N = 4)): 1 n (%)
TEAE Bruxism (8 mg (N = 4)): 1 n (%)
TEAE Dermatitis contact (8 mg (N = 4)): 0 n (%)
TEAE Dizziness (8 mg (N = 4)): 1 n (%)
TEAE Hyperhidrosis (8 mg (N = 4)): 1 n (%)
TEAE Hyperlipidaemia (8 mg (N = 4)): 0 n (%)
TEAE Insomnia (8 mg (N = 4)): 3 n (%)
TEAE Pollakiuria (8 mg (N = 4)): 2 n (%)
TEAE Procedural anxiety (8 mg (N = 4)): 0 n (%)
TEAE Salivary hypersecretion (8 mg (N = 4)): 2 n (%)
TEAE Vascular access site injury (8 mg (N = 4)): 0 n (%)
TEAE Vessel puncture site bruise (8 mg (N = 4)): 0 n (%)
TEAE by Highest Relationship: Not Related (8 mg (N = 4)): 0 n (%)
TEAE by Highest Relationship: Related (8 mg (N = 4)): 4 (100) n (%)
TEAE by Highest Severity: Mild (8 mg (N = 4)): 4 (100) n (%)
TEAE by Highest Severity: Moderate (8 mg (N = 4)): 0 n (%)
TEAE by Highest Severity: Severe (8 mg (N = 4)): 0 n (%)
AE Leading to Study Drug Discontinuation (8 mg (N = 10)): 0 n (%)
Any SAEs (8 mg (N = 10)): 0 n (%)
Any TEAE (8 mg (N = 10)): 9 (90.0) n (%)
Death (8 mg (N = 10)): 0 n (%)
TEAE Anaemia (8 mg (N = 10)): 0 n (%)
TEAE Application site dermatitis (8 mg (N = 10)): 1 (10.0) n (%)
TEAE Back pain (8 mg (N = 10)): 1 (10.0) n (%)
TEAE Blood pressure increased (8 mg (N = 10)): 1 (10.0) n (%)
TEAE Bruxism (8 mg (N = 10)): 1 (10.0) n (%)
TEAE Decreased appetite (8 mg (N = 10)): 1 (10.0) n (%)
TEAE Dehydration (8 mg (N = 10)): 0 n (%)
TEAE Dermatitis contact (8 mg (N = 10)): 0 n (%)
TEAE Dizziness (8 mg (N = 10)): 2 (20.0) n (%)
TEAE Haemoglobin decreased (8 mg (N = 10)): 1 (10.0) n (%)
TEAE Headache (8 mg (N = 10)): 0 n (%)
TEAE Hyperhidrosis (8 mg (N = 10)): 1 (10.0) n (%)
TEAE Hyperlipdaemia (8 mg (N = 10)): 0 n (%)
TEAE Insomnia (8 mg (N = 10)): 3 (30.0) n (%)
TEAE Middle Insomnia (8 mg (N = 10)): 3 (30.0) n (%)
TEAE Nausea (8 mg (N = 10)): 2 (20.0) n (%)
TEAE Pollakiuria (8 mg (N = 10)): 4 (40.0) n (%)
TEAE Salivary hypersecretion (8 mg (N = 10)): 3 (30.0) n (%)
TEAE Sinus tachycardia (8 mg (N = 10)): 1 (10.0) n (%)
TEAE Vascular access site injury (8 mg (N = 10)): 0 n (%)
TEAE Vessel puncture site bruise (8 mg (N = 10)): 2 (20.0) n (%)
TEAE Vessel puncture site pain (8 mg (N = 10)): 2 (20.0) n (%)
TEAE by Highest Relationship: Not Related (8 mg (N = 10)): 0 n (%)
TEAE by Highest Relationship: Related (8 mg (N = 10)): 9 (90.0) n (%)
TEAE by Highest Severity: Mild (8 mg (N = 10)): 8 (80.0) n (%)
TEAE by Highest Severity: Moderate (8 mg (N = 10)): 1 (10.0) n (%)
TEAE by Highest Severity: Severe (8 mg (N = 10)): 0 n (%)
Tolerability (NT1, 1, 3 and 8 mg): well tolerated
AE Leading to Study Drug Discontinuation (Total (N = 4)): 0 n (%)
Any SAEs (Total (N = 4)): 0 n (%)
Any TEAE (Total (N = 4)): 4 (100) n (%) and 4 n (%)
Death (Total (N = 4)): 0 n (%)
TEAE Anaemia (Total (N = 4)): 0 n (%)
TEAE Application site dermatitis (Total (N = 4)): 2 n (%)
TEAE Blood pressure increased (Total (N = 4)): 1 n (%)
TEAE Bruxism (Total (N = 4)): 1 n (%)
TEAE Dermatitis contact (Total (N = 4)): 1 n (%)
TEAE Dizziness (Total (N = 4)): 1 n (%)
TEAE Hyperhidrosis (Total (N = 4)): 1 n (%)
TEAE Hyperlipidaemia (Total (N = 4)): 0 n (%)
TEAE Insomnia (Total (N = 4)): 3 n (%)
TEAE Pollakiuria (Total (N = 4)): 2 n (%)
TEAE Procedural anxiety (Total (N = 4)): 1 n (%)
TEAE Salivary hypersecretion (Total (N = 4)): 2 n (%)
TEAE Vascular access site injury (Total (N = 4)): 1 n (%)
TEAE Vessel puncture site bruise (Total (N = 4)): 1 n (%)
TEAE by Highest Relationship: Not Related (Total (N = 4)): 0 n (%)
TEAE by Highest Relationship: Related (Total (N = 4)): 4 (100) n (%)
TEAE by Highest Severity: Mild (Total (N = 4)): 4 (100) n (%)
TEAE by Highest Severity: Moderate (Total (N = 4)): 0 n (%)
TEAE by Highest Severity: Severe (Total (N = 4)): 0 n (%)
Any TEAE (Total (N = 10)): 9 (90.0) n (%)
TEAE Anaemia (Total (N = 10)): 0 n (%)
TEAE Application site dermatitis (Total (N = 10)): 2 (20.0) n (%)
TEAE Back pain (Total (N = 10)): 1 (10.0) n (%)
TEAE Blood pressure increased (Total (N = 10)): 1 (10.0) n (%)
TEAE Bruxism (Total (N = 10)): 1 (10.0) n (%)
TEAE Decreased appetite (Total (N = 10)): 2 (20.0) n (%)
TEAE Dehydration (Total (N = 10)): 1 (10.0) n (%)
TEAE Dermatitis contact (Total (N = 10)): 2 (20.0) n (%)
TEAE Dizziness (Total (N = 10)): 2 (20.0) n (%)
TEAE Haemoglobin decreased (Total (N = 10)): 1 (10.0) n (%)
TEAE Headache (Total (N = 10)): 0 n (%)
TEAE Hyperhidrosis (Total (N = 10)): 1 (10.0) n (%)
TEAE Hyperlipdaemia (Total (N = 10)): 0 n (%)
TEAE Insomnia (Total (N = 10)): 3 (30.0) n (%)
TEAE Middle Insomnia (Total (N = 10)): 3 (30.0) n (%)
TEAE Nausea (Total (N = 10)): 2 (20.0) n (%)
TEAE Pollakiuria (Total (N = 10)): 4 (40.0) n (%)
TEAE Salivary hypersecretion (Total (N = 10)): 3 (30.0) n (%)
TEAE Sinus tachycardia (Total (N = 10)): 1 (10.0) n (%)
TEAE Vascular access site injury (Total (N = 10)): 1 (10.0) n (%)
TEAE Vessel puncture site bruise (Total (N = 10)): 3 (30.0) n (%)
TEAE Vessel puncture site pain (Total (N = 10)): 2 (20.0) n (%)
